According to PubChem BioAssay AID330 (DTP/NCI, 2004):
Several values for one entry are separate records, joined by “and”; a condition that tells them apart may be missing. Equal values may be shown once. Inconclusive results and toxic doses are left out.

Tested on: P388 leukemia ip, CD2F1 mice, survival T/C
Experiment: NCI In Vivo Anticancer Drug Screen. Data for tumor model P388 Leukemia (intraperitoneal) in CD2F1 (CDF1) mice
Conditions: endpoint: median survival time, higher = longer survival
In short: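 Mice carrying the transplanted tumor received test compound or vehicle. Survival was recorded in each group, and the value is the treated-group measurement divided by that of the vehicle-treated control group.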

[1] = dose: 100.0 mg/kg/injection, schedule: Q01DX001 (ip), vehicle: Klucel (hydroxypropylcellulose) (HPC)
[2] = dose: 200.0 mg/kg/injection, schedule: Q01DX001 (ip), vehicle: Klucel (hydroxypropylcellulose) (HPC)
[3] = dose: 50.0 mg/kg/injection, schedule: Q01DX005 (ip), vehicle: saline with Tween-80
[4] = dose: 100.0 mg/kg/injection, schedule: Q01DX005 (ip), vehicle: saline with Tween-80
[5] = dose: 200.0 mg/kg/injection, schedule: Q01DX005 (ip), vehicle: saline with Tween-80
[6] = dose: 1.25 mg/kg/injection, schedule: Q01DX009 (ip), vehicle: saline with Tween-80
[7] = dose: 50.0 mg/kg/injection, schedule: Q01DX005 (ip), vehicle: Klucel (hydroxypropylcellulose) (HPC)
[8] = dose: 100.0 mg/kg/injection, schedule: Q01DX005 (ip), vehicle: Klucel (hydroxypropylcellulose) (HPC)
[9] = dose: 200.0 mg/kg/injection, schedule: Q01DX005 (ip), vehicle: Klucel (hydroxypropylcellulose) (HPC)
[10] = dose: 50.0 mg/kg/injection, schedule: Q01DX009 (ip), vehicle: saline with Tween-80
[11] = dose: 100.0 mg/kg/injection, schedule: Q01DX009 (ip), vehicle: saline with Tween-80
[12] = dose: 200.0 mg/kg/injection, schedule: Q01DX009 (ip), vehicle: saline with Tween-80

SMILES: CCNC(=O)OCc1c(Cl)nc2sccn12
- T/C [1]: 106 % of control
- T/C [2]: 107 % of control
- T/C (dose: 400.0 mg/kg/injection, schedule: Q01DX001 (ip), vehicle: Klucel (hydroxypropylcellulose) (HPC)): 100 % of control

SMILES: CCn1c2ccc([N+](=O)[O-])cc2c2c([N+](=O)[O-])c(-n3cccc3)ccc21
- T/C [3]: 95 % of control
- T/C [4]: 90 % of control
- T/C [5]: 88 % of control

SMILES: CC12CCC(O)CC1CCC1C2CCC2(C)C(c3ccc(=O)oc3)CCC12O (stereo not given)
- T/C (dose: 0.31 mg/kg/injection, schedule: Q01DX009 (ip), vehicle: saline with Tween-80): 100 % of control
- T/C (dose: 0.62 mg/kg/injection, schedule: Q01DX009 (ip), vehicle: saline with Tween-80): 97 % of control
- T/C [6]: 97 % of control
- T/C (dose: 2.5 mg/kg/injection, schedule: Q01DX009 (ip), vehicle: saline with Tween-80): 103 % of control

SMILES: [I][Hg][CH2]C1COCC([CH2][Hg][I])O1.[I][Hg][CH2]C1COCC([CH2][Hg][I])O1 (stereo not given)
- T/C (dose: 3.13 mg/kg/injection, schedule: Q01DX009 (ip), vehicle: saline with Tween-80): 109 % of control
- T/C (dose: 3.13 mg/kg/injection, schedule: Q04DX003 (ip), vehicle: saline with Tween-80): 109 % of control
- T/C (dose: 6.25 mg/kg/injection, schedule: Q01DX009 (ip), vehicle: saline with Tween-80): 113 % of control
- T/C (dose: 6.25 mg/kg/injection, schedule: Q04DX003 (ip), vehicle: saline with Tween-80): 86 % of control
- T/C (dose: 12.5 mg/kg/injection, schedule: Q01DX009 (ip), vehicle: saline with Tween-80): 118 % of control
- T/C (dose: 12.5 mg/kg/injection, schedule: Q04DX003 (ip), vehicle: saline with Tween-80): 100 % of control

SMILES: N#CCc1c(-c2ccccc2)c(-c2ccccc2)c2n1CCC2
- T/C [7]: 98 % of control
- T/C [8]: 99 % of control
- T/C [9]: 96 % of control

SMILES: S=c1[nH]cc2cnccn12
- T/C (dose: 50.0 mg/kg/injection, schedule: Q04DX003 (ip), vehicle: saline with Tween-80): 100 % of control
- T/C (dose: 100.0 mg/kg/injection, schedule: Q04DX003 (ip), vehicle: saline with Tween-80): 110 % of control
- T/C (dose: 200.0 mg/kg/injection, schedule: Q04DX003 (ip), vehicle: saline with Tween-80): 110 % of control

SMILES: O=Cc1c(-c2ccc(-c3ccccc3)cc2)nc2n1CCS2
- T/C [1]: 100 % of control
- T/C [2]: 97 % of control

SMILES: CCOC(CN/C(=C/c1ccc2ccccc2[n+]1C)SC)OCC
- T/C (dose: 15.0 mg/kg/injection, schedule: Q01DX005 (ip), vehicle: saline with Tween-80): 117 % of control
- T/C (dose: 30.0 mg/kg/injection, schedule: Q01DX005 (ip), vehicle: saline with Tween-80): 121 % of control

SMILES: Cc1ccc2[nH]c(=S)n(-c3ccc(S(=O)(=O)N4CCCCC4)cc3)c(=O)c2c1
- T/C [3]: 89 % of control
- T/C [4]: 91 % of control
- T/C [5]: 90 % of control

SMILES: C=CC(=NC(C)(C)C)Nc1ccc(OC)cc1
- T/C [10]: 112 % of control
- T/C [11]: 112 % of control

SMILES: [O-][n+]1ccccc1[S][Sn]([Cl])([Cl])[S]c1cccc[n+]1[O-]
- T/C [10]: 94 % of control
- T/C [11]: 106 % of control
- T/C [12]: 102 % of control

SMILES: COC(=O)C1C2CC3c4[nH]c5cc(OC)ccc5c4CCN3CC2CC(O)C1OC (stereo not given)
- T/C [7]: 97 % of control
- T/C [8]: 97 % of control

SMILES: O=[N+]([O-])c1cc(Cl)c(Cl)cc1Cl
- T/C [10]: 109 % of control
- T/C [11]: 100 % of control
- T/C [12]: 104 % of control

SMILES: Cc1ccc(/C=C/C(=O)C(C)CN(C)C)cc1 (stereo not given)
- T/C (dose: 15.0 mg/kg/injection, schedule: Q01DX005 (ip), vehicle: saline): 100 % of control
- T/C (dose: 30.0 mg/kg/injection, schedule: Q01DX005 (ip), vehicle: saline): 99 % of control
- T/C (dose: 60.0 mg/kg/injection, schedule: Q01DX005 (ip), vehicle: saline): 98 % of control and 100 % of control
- T/C (dose: 120.0 mg/kg/injection, schedule: Q01DX005 (ip), vehicle: saline): 100 % of control and 106 % of control and 107 % of control
- T/C (dose: 240.0 mg/kg/injection, schedule: Q01DX005 (ip), vehicle: saline): 119 % of control

SMILES: CC(=O)[O][Hg][O]C(C)=O
- T/C [6]: 95 % of control

SMILES: O=C(NC1C=Nc2ccc(Cl)cc2NC1=O)c1ccc2ccccc2c1 (stereo not given)
- T/C (dose: 60.0 mg/kg/injection, schedule: Q01DX005 (ip), vehicle: Klucel (hydroxypropylcellulose) (HPC)): 90 % of control
- T/C (dose: 120.0 mg/kg/injection, schedule: Q01DX005 (ip), vehicle: Klucel (hydroxypropylcellulose) (HPC)): 91 % of control
- T/C (dose: 240.0 mg/kg/injection, schedule: Q01DX005 (ip), vehicle: Klucel (hydroxypropylcellulose) (HPC)): 92 % of control

SMILES: CC(=O)OCC1OC(N(C(C)=O)c2nc(Cl)c3cc[nH]c3n2)C(OC(C)=O)C1OC(C)=O (stereo not given)
- T/C (dose: 25.0 mg/kg/injection, schedule: Q04DX003 (ip), vehicle: other): 102 % of control
- T/C (dose: 50.0 mg/kg/injection, schedule: Q04DX003 (ip), vehicle: other): 105 % of control
- T/C (dose: 100.0 mg/kg/injection, schedule: Q04DX003 (ip), vehicle: other): 105 % of control
- T/C (dose: 200.0 mg/kg/injection, schedule: Q04DX003 (ip), vehicle: other): 104 % of control
- T/C (dose: 400.0 mg/kg/injection, schedule: Q04DX003 (ip), vehicle: other): 108 % of control

SMILES: CCOC(=O)/C=C(/C)Sc1cc(O)ccc1O
- T/C [10]: 102 % of control
- T/C [11]: 111 % of control
- T/C [12]: 109 % of control

SMILES: O=S(=O)(SC(Cl)(Cl)Cl)c1ccc(Cl)cc1
- T/C (dose: 12.5 mg/kg/injection, schedule: Q01DX009 (ip), vehicle: saline sonified): 100 % of control
- T/C (dose: 25.0 mg/kg/injection, schedule: Q01DX009 (ip), vehicle: saline sonified): 100 % of control
- T/C (dose: 50.0 mg/kg/injection, schedule: Q01DX009 (ip), vehicle: saline sonified): 100 % of control

SMILES: Cc1cnc(=O)[nH]c1NOCc1ccccc1
- T/C (dose: 15.0 mg/kg/injection, schedule: Q01DX001 (ip), vehicle: saline): 98 % of control
- T/C (dose: 30.0 mg/kg/injection, schedule: Q01DX001 (ip), vehicle: saline): 105 % of control
- T/C (dose: 60.0 mg/kg/injection, schedule: Q01DX001 (ip), vehicle: saline): 100 % of control

SMILES: COC(=O)C12C3C4C1C1C2C3C41C(=O)OC (stereo not given)
- T/C (dose: 60.0 mg/kg/injection, schedule: Q01DX005 (ip), vehicle: saline with Tween-80): 102 % of control
- T/C (dose: 120.0 mg/kg/injection, schedule: Q01DX005 (ip), vehicle: saline with Tween-80): 102 % of control
- T/C (dose: 240.0 mg/kg/injection, schedule: Q01DX005 (ip), vehicle: saline with Tween-80): 102 % of control

SMILES: CCN(CC)CCOc1ccc(Cl)c(C)c1
- T/C [3]: 101 % of control
- T/C [4]: 103 % of control

SMILES: O=c1c2ccccc2nc(CCN(CCCl)CCCl)n1-c1ccc(Cl)cc1
- T/C (dose: 25.0 mg/kg/injection, schedule: Q01DX001 (ip), vehicle: saline): 106 % of control
- T/C (dose: 50.0 mg/kg/injection, schedule: Q01DX001 (ip), vehicle: saline): 113 % of control
- T/C (dose: 200.0 mg/kg/injection, schedule: Q01DX001 (ip), vehicle: saline): 164 % of control

SMILES: O=C(NC(=S)c1cccs1)Nc1ccccc1
- T/C (dose: 4.0 mg/kg/injection, schedule: Q01DX009 (ip), vehicle: saline with Tween-80): 89 % of control
- T/C (dose: 8.0 mg/kg/injection, schedule: Q01DX009 (ip), vehicle: saline with Tween-80): 94 % of control
- T/C (dose: 16.0 mg/kg/injection, schedule: Q01DX009 (ip), vehicle: saline with Tween-80): 87 % of control
- T/C [10]: 89 % of control
- T/C [11]: 100 % of control

SMILES: O=[N+]([O-])c1ccc([Se]CCBr)c([N+](=O)[O-])c1
- T/C (dose: 100.0 mg/kg/injection, schedule: Q04DX003 (ip), vehicle: Klucel (hydroxypropylcellulose) (HPC)): 101 % of control
- T/C (dose: 200.0 mg/kg/injection, schedule: Q04DX003 (ip), vehicle: Klucel (hydroxypropylcellulose) (HPC)): 101 % of control

SMILES: COc1cc(OC)c(C(=O)/C=C/c2ccncc2)cc1C(=O)O
- T/C (dose: 50.0 mg/kg/injection, schedule: Q01DX009 (ip), vehicle: suspension in saline): 114 % of control and 119 % of control
- T/C (dose: 100.0 mg/kg/injection, schedule: Q01DX009 (ip), vehicle: suspension in saline): 123 % of control and 124 % of control

SMILES: O=c1[nH]cc(Cn2cnc3ncccc3c2=O)c(=O)[nH]1
- T/C (dose: 100.0 mg/kg/injection, schedule: Q01DX001 (ip), vehicle: suspension in saline): 93 % of control
- T/C (dose: 200.0 mg/kg/injection, schedule: Q01DX001 (ip), vehicle: suspension in saline): 105 % of control
- T/C (dose: 400.0 mg/kg/injection, schedule: Q01DX001 (ip), vehicle: suspension in saline): 112 % of control

SMILES: COc1cc2nc(C)[nH]c(=O)c2cc1OC
- T/C [7]: 109 % of control
- T/C [8]: 90 % of control
- T/C [9]: 99 % of control
